Drawing on patent US7265260B2, “Transgenic non-human mammals expressing constitutively activated tyrosine kinase receptors” (Bristol-Myers Squibb Company, priority 2002, dated 2007), this text covers IC50 for one molecule.

Structures are written as SMILES.

The test system of the assay is IGF1R Sal tumor cell line. Nature of the assay: Cytotoxicity assay: inhibition of cell proliferation by [3H]-thymidine incorporation. As to conditions: IGF-1R-Sal, IGF1R Sal (CD8-IGF1R) cell line from transgenic mouse xenograft tumor, 72 h exposure, read-out: Cytotoxicity Assay IC50 (nM) against IGF1R Sal tumor cell line. In kind it is cell-based. The procedure: The proliferative activity of two IGF1R inhibitors in cells was evaluated in vitro against a cell line derived from a xenograft tumor generated in a transgenic mouse, IGF1R Sal (CD8-IGF1R), which was engineered to overexpress the catalytic domain of the human IGF1R. The two IGF1R inhibitors evaluated were a benzimidazole compound as described in WO02/079192 and U.S. application Ser. No. 10/263,448, hereby incorporated by reference, and paclitaxel. Inhibition of cellular proliferation was also determined in a variety of human tumor xenograft cell lines including, Colo205 (colon), Geo (colon), RD1 (rhabdomyosarcoma), H3396 (breast), and MDA PCa2b (prostate). Proliferation was evaluated by incorporation of [^3H]-thymidine into DNA after a 72 hour exposure to reagents. Cells were plated at 1,500 cells/well in 96-well microtiter plates and 24 hours later cells were exposed to a range of drug concentrations. After 72 hours incubation at 37° C., cells were pulsed with 4 μCi/ml [6-^3H] thymidine (Amersham Pharmacia Biotech, UK) for 3 hours, trypsinized, harvested onto UniFilter-96, GF/B plates (PerkinElmer, Boston, Mass.), and scintillation was measured on a TopCount.NXT (Packard, Conn.). Results are expressed as an IC50, which is the drug concentration required to inhibit cell proliferation by 50% to that of untreated control cells.
Background: Dividing cells build labelled thymidine or BrdU into new DNA.

What is called IC50 is the concentration at which inhibition is half-maximal. `CC(=O)O[C@H]1C(=O)[C@@]2(C)[C@H]([C@H](OC(=O)c3ccccc3)[C@]3(O)C[C@H](OC(=O)[C@H](O)[C@@H](NC(=O)c4ccccc4)c4ccccc4)C(C)=C1C3(C)C)[C@]1(OC(C)=O)CO[C@@H]1C[C@@H]2O` [paclitaxel]: the IC50 came to 2.9 nM.
